# Assay results from patent US20260285850A1, “SUBSTITUTED OXAZOLIDINONES AND IMIDAZOLINONES AS HERBICIDES” (FMC CORPORATION, priority 2023, published 2026).
# Experiments:
# Format in all cases: in vivo
# [1] = tested on: barnyardgrass (Echinochloa crusgalli); assay: Test B flooded paddy test, visual plant response rating 0-100; settings: 250 g ai/ha, Flood, applied to paddy water, evaluated after 13 days
# Outline: (§1)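 Paddy-water application: test compounds went directly into water flooded 3 cm above the soil surface, with plants at 2 leaves. After a 13-day greenhouse period, responses were judged by eye relative to controls; a dash marks an untested entry.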
# [2] = tested on: ducksalad (Heteranthera limosa); assay: as above; settings: 250 g ai/ha, Flood, applied to paddy water, evaluated after 13 days
# Outline: as §1
# [3] = tested on: sedge, umbrella (small-flower umbrella sedge, Cyperus difformis); assay: as above; settings: 250 g ai/ha, Flood, applied to paddy water, evaluated after 13 days
# Outline: as §1
# rice (Oryza sativa) = assay: as above; settings: 250 g ai/ha, Flood, applied to paddy water, evaluated after 13 days
# Outline: as §1
# [4] = tested on: oat, wild (wild oat, Avena fatua); assay: Test A postemergence application, visual injury rating 0-100; settings: 10 days
# Outline: (§2)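 Greenhouse test: loam/sand pots received a surfactant-containing formulation, as a preemergence directed soil spray or a postemergence spray on young plants. Injury was judged visually at day 10 relative to untreated controls.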
# [5] = tested on: blackgrass (Alopecurus myosuroides); assay: as above; settings: 10 days
# Outline: as §2
# soybean (Glycine max) [6] = assay: as above; settings: 10 days
# Outline: as §2
# [7] = tested on: green foxtail (Setaria viridis); assay: as above; settings: 10 days
# Outline: as §2
# [8] = tested on: ryegrass, Italian (italian ryegrass, Lolium multiflorum); assay: as above; settings: 10 days
# Outline: as §2
# [9] = tested on: ragweed (common ragweed, Ambrosia artemisiifolia); assay: as above; settings: 10 days
# Outline: as §2
# [10] = tested on: palmer (palmer amaranth, palmer pigweed, Amaranthus palmeri); assay: as above; settings: 10 days
# Outline: as §2
# kochia (Bassia scoparia) [11] = assay: as above; settings: 10 days
# Outline: as §2
# [12] = tested on: wheat (Triticum aestivum); assay: as above; settings: 10 days
# Outline: as §2
# corn (Zea mays) [13] = assay: as above; settings: 10 days
# Outline: as §2
# [14] = tested on: barnyardgrass (Echinochloa crus-galli); assay: as above; settings: 10 days
# Outline: as §2
# [15] = tested on: horseweed (Erigeron canadensis); assay: as above; settings: 10 days
# Outline: as §2
# [16] = tested on: galium (catchweed bedstraw, Galium aparine); assay: as above; settings: 10 days
# Outline: as §2
# [17] = tested on: oat, wild (wild oat, Avena fatua); assay: Test A preemergence soil spray, visual injury rating 0-100; settings: 10 days, 0 = no effect, 100 = complete control
# Outline: as §2
# [18] = tested on: blackgrass (Alopecurus myosuroides); assay: as above; settings: 10 days, 0 = no effect, 100 = complete control
# Outline: as §2
# soybean (Glycine max) [19] = assay: as above; settings: 10 days, 0 = no effect, 100 = complete control
# Outline: as §2
# [20] = tested on: green foxtail (Setaria viridis); assay: as above; settings: 10 days, 0 = no effect, 100 = complete control
# Outline: as §2
# [21] = tested on: ryegrass, Italian (italian ryegrass, Lolium multiflorum); assay: as above; settings: 10 days, 0 = no effect, 100 = complete control
# Outline: as §2
# [22] = tested on: ragweed (common ragweed, Ambrosia artemisiifolia); assay: as above; settings: 10 days, 0 = no effect, 100 = complete control
# Outline: as §2
# [23] = tested on: palmer (palmer amaranth, palmer pigweed, Amaranthus palmeri); assay: as above; settings: 10 days, 0 = no effect, 100 = complete control
# Outline: as §2
# kochia (Bassia scoparia) [24] = assay: as above; settings: 10 days, 0 = no effect, 100 = complete control
# Outline: as §2
# [25] = tested on: wheat (Triticum aestivum); assay: as above; settings: 10 days, 0 = no effect, 100 = complete control
# Outline: as §2
# corn (Zea mays) [26] = assay: as above; settings: 10 days, 0 = no effect, 100 = complete control
# Outline: as §2
# [27] = tested on: barnyardgrass (Echinochloa crus-galli); assay: as above; settings: 10 days, 0 = no effect, 100 = complete control
# Outline: as §2
# [28] = 31 g ai/ha, postemergence, 0 = no effect, 100 = complete control
# [29] = Postemergence, 125 g ai/ha, 0 is no effect, 100 is complete control
compound,measurement,setting,value
CCOC(=O)C1=CCC(NC(=O)C2(C)CN(c3cc(F)cc(F)c3)C(=O)O2)C1 (stereo not shown) [Compound 15],"Plant response rating, Barnyardgrass (0 to 100 scale, 0 is no effect and 100 is complete control)",[1],60
same,"Plant response rating, Ducksalad (0 to 100 scale, 0 is no effect and 100 is complete control)",[2],80
same,"Plant response rating, Sedge, Umbrella (0 to 100 scale, 0 is no effect and 100 is complete control)",[3],70
same,"Plant response rating, Rice (0 to 100 scale, 0 is no effect and 100 is complete control)",rice (Oryza sativa),65
same,"Oat, Wild plant response rating (0-100)",[4]; [28],90
same,"Oat, Wild plant response rating (0 to 100 scale)",[4]; [29],90
same,Blackgrass plant response rating (0-100),[5]; [28],70
same,Blackgrass plant response rating (0 to 100 scale),[5]; [29],100
same,Soybean plant response rating (0-100),soybean (Glycine max) [6]; [28],60
same,Soybean plant response rating (0 to 100 scale),soybean (Glycine max) [6]; [29],70
same,"Foxtail, Green plant response rating (0-100)",[7]; [28],90
same,"Foxtail, Green plant response rating (0 to 100 scale)",[7]; [29],90
same,"Ryegrass, Italian plant response rating (0-100)",[8]; [28],80
same,"Ryegrass, Italian plant response rating (0 to 100 scale)",[8]; [29],90
same,Ragweed plant response rating (0-100),[9]; [28],40
same,Ragweed plant response rating (0 to 100 scale),[9]; [29],50
same,"Amaranth, Palmer plant response rating (0-100)",[10]; [28],50
same,"Amaranth, Palmer / Pigweed, Palmer plant response rating (0 to 100 scale)",[10]; [29],90
same,Kochia plant response rating (0-100),kochia (Bassia scoparia) [11]; [28],70
same,Kochia plant response rating (0 to 100 scale),kochia (Bassia scoparia) [11]; [29],70
same,Wheat plant response rating (0-100),[12]; [28],90
same,Wheat plant response rating (0 to 100 scale),[12]; [29],90
same,Corn plant response rating (0-100),corn (Zea mays) [13]; [28],100
same,Corn plant response rating (0 to 100 scale),corn (Zea mays) [13]; [29],100
same,Barnyardgrass plant response rating (0-100),[14]; [28],100
same,Barnyardgrass plant response rating (0 to 100 scale),[14]; [29],100
same,Horseweed plant response rating (0-100),[15]; [28],0
same,Horseweed plant response rating (0 to 100 scale),[15]; [29],0
same,Galium plant response rating (0-100),[16]; [28],80
same,Galium plant response rating (0 to 100 scale),[16]; [29],90
same,"Oat, Wild plant response rating (0-100)",[17]; 31 g ai/ha,0
same,"Oat, Wild plant response rating (0 to 100 scale)",[17]; 125 g ai/ha,50
same,Blackgrass plant response rating (0-100),[18]; 31 g ai/ha,0
same,Blackgrass plant response rating (0 to 100 scale),[18]; 125 g ai/ha,40
same,Soybean plant response rating (0-100),soybean (Glycine max) [19]; 31 g ai/ha,0
same,Soybean plant response rating (0 to 100 scale),soybean (Glycine max) [19]; 125 g ai/ha,30
same,"Foxtail, Green plant response rating (0-100)",[20]; 31 g ai/ha,30
same,"Foxtail, Green plant response rating (0 to 100 scale)",[20]; 125 g ai/ha,100
same,"Ryegrass, Italian plant response rating (0-100)",[21]; 31 g ai/ha,80
same,"Ryegrass, Italian plant response rating (0 to 100 scale)",[21]; 125 g ai/ha,90
same,Ragweed plant response rating (0-100),[22]; 31 g ai/ha,0
same,Ragweed plant response rating (0 to 100 scale),[22]; 125 g ai/ha,0
same,"Amaranth, Palmer plant response rating (0-100)",[23]; 31 g ai/ha,50
same,"Amaranth, Palmer plant response rating (0 to 100 scale)",[23]; 125 g ai/ha,100
same,Kochia plant response rating (0-100),kochia (Bassia scoparia) [24]; 31 g ai/ha,0
same,Kochia plant response rating (0 to 100 scale),kochia (Bassia scoparia) [24]; 125 g ai/ha,90
same,Wheat plant response rating (0-100),[25]; 31 g ai/ha,50
same,Wheat plant response rating (0 to 100 scale),[25]; 125 g ai/ha,90
same,Corn plant response rating (0-100),corn (Zea mays) [26]; 31 g ai/ha,20
same,Corn plant response rating (0 to 100 scale),corn (Zea mays) [26]; 125 g ai/ha,60
same,Barnyardgrass plant response rating (0-100),[27]; 31 g ai/ha,0
same,Barnyardgrass plant response rating (0 to 100 scale),[27]; 125 g ai/ha,100
